Results reported in BigSolDB 2.1.

Oc1ccccc1C=Nc1c(F)cccc1F
solubility (mole fraction)
Conditions	273.15 K	278.15 K	283.15 K	288.15 K	293.15 K	298.15 K	303.15 K
in 1,2-dichloroethane	0.105	0.122	0.142	0.164	0.193	0.234	0.277
in THF	0.161	0.181	0.2	0.23	0.258	0.293	0.338
in acetonitrile	0.0134	0.0191	0.0272	0.0389	0.0547	0.0768	0.106
in chloroform	0.138	0.154	0.177	0.203	0.232	0.27	0.313
in dichloromethane	0.122	0.139	0.161	0.185	0.218	0.252	0.295
in ethanol	0.00496	0.00633	0.00819	0.0103	0.0128	0.0157	0.0192
in ethyl acetate	0.0896	0.104	0.124	0.146	0.173	0.204	0.248
in isopropanol	0.008	0.0095	0.0114	0.0136	0.0164	0.0195	0.0231
in methanol	0.00299	0.00392	0.00512	0.00667	0.00873	0.0111	0.0141
in n-propanol	0.00636	0.00779	0.00958	0.0118	0.0146	0.0177	0.0212
in toluene	0.0871	0.105	0.126	0.149	0.176	0.213	0.251
